EP2921486B1, “Compositions and methods for treating beta-amyloid related diseases” (American Life Science Pharmaceuticals, Inc., priority 2009, dated 2011)
Read-outs that look alike come from different tables or passages of the source.

Columns and labels:
Aβ(40) and Aβ(42) = assay: Brain, CSF and plasma Aβ ELISA after once-a-day oral gavage for one week (Example 9); assay type: in vivo; details: guinea pigs
Text: (§1) Guinea Pigs. Guinea Pigs (Harley strain, average weight 400 g corresponding to animals about 6 weeks old) were obtained from Charles River (Wilmington, MA). The animals were given free access to standard chow and water before and during the experiment.
(§2) Gavage Formulation: Delivering a drug by gavage offers the advantage of accurate dosing but is traumatic and thus only suitable for relatively short dosing periods. Gavage delivery was used for the guinea pig work. E64d was resuspended in DMSO at indicated concentrations (see Figures, and below) and guinea pigs were gavaged daily using a feeding tube. Vehicle control animals were provided DMSO alone.
(§3) Guinea Pig Gavage Dosing: Guinea pigs were gavaged daily for one week. Guinea pigs were lightly anesthetized with isoflurane prior to gavaging. 250 µl of compound solution was gavaged daily per animal and animals were sacrificed 4 hrs after the last dosing.

brain cathepsin B = assay: Brain cathepsin B activity after once-a-day oral gavage (fluorometric kit); assay type: in vivo; details: guinea pigs, once-a-day oral administration
Text: as §1, §2, §3
The brain cathepsin B activity in guinea pigs was measured as follows: Cathepsin B activity was determined using a fluorometric assay kit from Abeam, Inc. (catalog ab65300; Cambridge, MA) as described by the manufacturer.

brain BACE1 = assay: Brain BACE1 activity after once-a-day oral gavage (fluorometric kit); assay type: in vivo; details: guinea pigs, once-a-day oral administration
Text: as §1, §2, §3
The brain BRACE1 activity in guinea pigs was measured by Beta secretase activity was determined using a fluorometric assay kit from Abcam (ab65357) as described by the manufacturer.

[1] = maximal intravenous or oral doses, rats; cited from earlier work
[2] = high oral doses (500 mg/kg and 1 g/kg), cited from earlier work
[3] = healthy human volunteers, oral, about 5 mg/kg/day, single or continuous 1 week; cited from earlier work
[4] = cited from earlier work
[5] = system: brain Aβ40 and brain Aβ42; details: guinea pig, oral 10 mg/kg/day, 7 days
[6] = 5-week stability test at 60°C; assay type: physicochemical; details: read-out: compound remaining
brain Aβ(40) and Aβ(42) = details: for Summary Aβ 40 Mean % Control / Summary Aβ 42 Mean % Control: 1 & 3 month feeding; for Aβ 40 Difference / Aβ 42 Difference: control minus treated; for Aβ 40 % Control / Aβ 42 % Control: per cent reduction in Aβ
[7] = rats, cited from earlier work
[8] = cited from earlier work; remark: listed apart in the source
transgenic APPlon mice = assay: Morris water maze test, spatial memory deficit; assay type: in vivo; details: E64d-doped chow for 1 month or 3 months, either age group
Text: Figure 16 is not descriptive of the claimed invention. Figure 16 graphically illustrates data showing the effects of AB-007 (E64d, loxistatin)-doped chow on the spatial memory deficit that develops in transgenic APPlon (London APP) mice, see above description, and e.g. Hook, et al. (2008) supra. The Morris water maze test was used to measure the latency period, which is the time it takes an animal to swim to a submerged and not visible platform after having been previously trained as to the location of that platform. The longer the latency period, the poorer the spatial memory. Two groups of animals were evaluated, young and old mice.

[9] = oral, dogs; cited from earlier work
[10] = Old mice, 1 month feeding E64d doped chow
[11] = Old mice, 3 month feeding E64d doped chow
[12] = Young mice, 1 month feeding E64d doped chow
[13] = Young mice, 3 month feeding E64d doped chow

## [2H]C([2H])([2H])C([2H])(CCNC(=O)[C@H](CC(C)C)NC(=O)[C@H]1O[C@@H]1C(=O)OCC)C([2H])([2H])[2H] [Compound E64d7]
Aβ(40) and Aβ(42)
  CSF Aβ: dose response reduction
  CSF Aβ(42): dose response reduction
  brain Aβ(40): dose response reduction
  brain Aβ(42): dose response reduction
  plasma Aβ(40): dose response reduction
  plasma Aβ(42): dose response reduction
Brain cathepsin B
  brain cathepsin B activity: dose response reduction
Brain BACE1
  brain BACE1 activity: increase

## CCOC(=O)[C@H]1O[C@@H]1C(=O)N[C@@H](CC(C)C)C(=O)NCCC(C)C (relative stereo) [AB-007, (2S,3S)-trans-epoxysuccinyl-L-leucyl-amido-3-methylbutane ethyl ester]
Aβ(40) and Aβ(42)
  CSF Aβ: dose response reduction
  CSF Aβ(42): dose response reduction
  brain Aβ(40): dose response reduction
  brain Aβ(42): dose response reduction
  plasma Aβ(40): dose response reduction
  plasma Aβ(42): dose response reduction
[1]
  influence on vision or hearing: do not influence
[2]
  effect on the cardiovascular system: no effect
[2]; sedation, mild inhibition of pentetrazol-induced seizure
  effect on the central nervous system: depress the central nervous system
[3]
  hematological tests, blood chemistry, urinalyses: no changes
  pulse, blood pressure, body temperature, grip force, electrocardiogram, physician observations: no change
Brain cathepsin B
  brain cathepsin B activity: dose response reduction
[4]; primary absorption site small intestine
  oral dose absorbed: about 60%
[4]; radioactive AB-007
  concentration in all other organs, including the brain: corresponding to the plasma concentration or concentrations lower than plasma
  kidneys concentration relative to plasma concentration: ~12 times
  liver concentration relative to plasma concentration: about 25 times
  time of maximum tissue concentration after administration: 0.5 h
[5]
  reduction of brain Aβ40 relative to vehicle treated controls: 42%
  reduction of brain Aβ42 relative to vehicle treated controls: 42%
[6]
  remaining at 840 h: 99%
Brain Aβ(40) and Aβ(42); All Ages
  Summary Aβ 40 Mean % Control: 64%
  Summary Aβ 42 Mean % Control: 52%
Brain Aβ(40) and Aβ(42); Old mice
  Summary Aβ 40 Mean % Control: 65%
  Summary Aβ 42 Mean % Control: 42%
Brain Aβ(40) and Aβ(42); [10]
  Aβ 40 Mean treated: 87.1
  Aβ 42 Mean treated: 31.9
Brain Aβ(40) and Aβ(42); Old mice, 1 month feeding
  Aβ 40 Difference: 142.9
  Aβ 42 Difference: 26.6
  Aβ 40 % Control: 62%
  Aβ 42 % Control: 45%
Brain Aβ(40) and Aβ(42); [11]
  Aβ 40 Mean treated: 91.2
  Aβ 42 Mean treated: 61.3
Brain Aβ(40) and Aβ(42); Old mice, 3 month feeding
  Aβ 40 Difference: 195.3
  Aβ 42 Difference: 38.5
  Aβ 40 % Control: 68%
  Aβ 42 % Control: 39%
Brain Aβ(40) and Aβ(42); Young mice
  Summary Aβ 40 Mean % Control: 60%
  Summary Aβ 42 Mean % Control: 62%
Brain Aβ(40) and Aβ(42); [12]
  Aβ 40 Mean treated: 47.7
  Aβ 42 Mean treated: 5.5
Brain Aβ(40) and Aβ(42); Young mice, 1 month feeding
  Aβ 40 Difference: 47.5
  Aβ 42 Difference: 6
  Aβ 40 % Control: 50%
  Aβ 42 % Control: 52%
Brain Aβ(40) and Aβ(42); [13]
  Aβ 40 Mean treated: 38.7
  Aβ 42 Mean treated: 4.5
Brain Aβ(40) and Aβ(42); Young mice, 3 month feeding
  Aβ 40 Difference: 87.4
  Aβ 42 Difference: 11.7
  Aβ 40 % Control: 69%
  Aβ 42 % Control: 72%
Brain BACE1
  brain BACE1 activity: increase
[7]; oral
  LD50: over 10,000 mg/kg
[7]; does not occur in other species
  hepatic injury: hepatic injury seen in rats
[8]; humans
  drug accumulation: No drug accumulation
  total urinary excretion rate: about 30%
[8]; oral
  conversion in the gut to E64c (loxistatin acid): rapidly and completely converted
Transgenic APPlon mice
  mean latency period relative to age-matched controls: significantly reduced
[9]
  LD50: > 5,000 mg/kg
